The test system of this assay is single drug resistant strains of M. tuberculosis. The assay can be described thus: microbe, parasite or virus in culture. Format: cell-based. The following applies: for MIC: Mycobacterium tuberculosis.

Each structure is given as a SMILES string. Converted amounts (≈) assume the structure as drawn. Where two headings read alike, the source gives them in different places.

In the case of `CCOC(=O)Nc1cc(NC(C)CCCN(CC)CC)c2nc(-c3ccccc3)c(-c3ccccc3)nc2n1` (stereo not shown) [SRI-3072, [8-(4-Diethylamino-1-methyl-butylamino)-2,3-diphenyl-pyrido[2,3-b]pyrazin-6-yl]-carbamic acid ethyl ester], the “susceptibility of singly resistant strains” value was “uniformly susceptible”. Further, the MIC (read-out: MIC, EMB-R) was no more than 0.1 µg/mL. Also, the MIC (read-out: MIC, INH-R) amounted to 0.78 µg/mL (≈ 1.48 µM). Also, the MIC (read-out: MIC, KM-R) is no more than 0.1 µg/mL. For the same compound, where the note is “read-out: MIC, RMP-R”, the MIC is no more than 0.1 µg/mL.

For the compound `CCOC(=O)Nc1cc2c(c(N)n1)N=C(c1ccccc1)CCN2` [SRI-7614, (1-Amino-8-phenyl-6,7-dihydro-5H-2,5,9-triaza-benzocyclohepten-3-yl)-carbamic acid ethyl ester], the “susceptibility of singly resistant strains” value was “uniformly susceptible”. The MIC (read-out: MIC, CS-R) was 3.12 µg/mL (≈ 9.59 µM). In addition, the MIC (read-out: MIC, EMB-R) was found to be 3.12 µg/mL (≈ 9.59 µM). Besides, for the setting “read-out: MIC, INH-R”, the MIC worked out at 6.25 µg/mL (≈ 19.2 µM). Also, where the note is “read-out: MIC, KM-R”, the MIC is 6.25 µg/mL (≈ 19.2 µM). Besides, the MIC (read-out: MIC, PZA-R) came out at 3.12 µg/mL (≈ 9.59 µM). Where the note is “read-out: MIC, RMP-R”, the MIC worked out at 3.12 µg/mL (≈ 9.59 µM). In addition, the MIC (read-out: MIC, TAC-R) was determined as 3.12 µg/mL (≈ 9.59 µM).

For the origin of these results see patent publication US7718651B2, “Inhibitors of FtsZ and uses thereof” (priority 2002, dated 2010).
